Earlier results on three compounds are cited in patent US10144913B1, “Method to increase the yield of products in plant material” (Arkansas State University-Jonesboro, priority 2012, dated 2018).

The structures appear in SMILES notation.

One data set has as its system cannabinoid receptors. The following applies: US 20120165281.
For data set [1] the following is noted: in vitro, compared to resveratrol.
For data set [2] the following is noted: in vitro, compared to resveratrol; US 20120165281.
The next data set concerns HL-60 cells. The following applies: caspase-dependent and caspase-independent pathways, Huang et al., 2010.
Data set [3] deals with type II cannabinoid receptor (Homo sapiens, UniProt P34972). The conditions noted are these: effect of the isoprenyl moiety; Brents et al., 2012.
The subject of the next data set is rotavirus. The conditions noted are these: rotavirus infected HT29.f8 cells; Ball et al., 2015.

Chain of type II cannabinoid receptor (P34972 whole entry): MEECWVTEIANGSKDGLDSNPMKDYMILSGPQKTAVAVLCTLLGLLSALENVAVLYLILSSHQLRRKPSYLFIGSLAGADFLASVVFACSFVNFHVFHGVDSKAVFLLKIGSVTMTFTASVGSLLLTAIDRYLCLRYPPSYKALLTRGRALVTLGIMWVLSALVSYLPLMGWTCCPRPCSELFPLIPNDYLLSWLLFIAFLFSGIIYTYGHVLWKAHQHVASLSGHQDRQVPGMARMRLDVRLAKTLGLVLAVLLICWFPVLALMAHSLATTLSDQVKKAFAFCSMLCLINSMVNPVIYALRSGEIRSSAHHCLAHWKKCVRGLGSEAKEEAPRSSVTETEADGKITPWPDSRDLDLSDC

For the compound `CC(C)/C=C/c1c(O)cc(/C=C/c2ccc(O)c(O)c2)cc1O` [arachidin-1], the “affinity to cannabinoid receptors” value in the data set on cannabinoid receptors is recorded as “have affinity”. Besides, the antioxidant activities result in data set [1] is “higher antioxidant activities than resveratrol”. Further, the metabolic profiles entry in data set [2] is given as “favorable metabolic profiles”. The anticancer activity result in the data set with HL-60 cells is “anticancer activity”. For the same compound, the “binding affinity to type II cannabinoid receptor” value in data set [3] was “improved binding affinity”. The “antiviral activity (inhibiting rotavirus replication)” value in the data set with rotavirus was “exhibited antiviral activity”.
As to `Oc1ccc(C=Cc2cc(O)cc(O)c2)cc1` [resveratrol, reference compound], in the data set with rotavirus, the “antiviral activity (inhibiting rotavirus replication)” value was “not observed”.
As for `CC(C)/C=C/c1c(O)cc(/C=C/c2ccc(O)cc2)cc1O` [arachidin-3], the “affinity to cannabinoid receptors” value with cannabinoid receptors is “have affinity”. For the same compound, the metabolic profiles result in data set [2] was “favorable metabolic profiles”. In addition, the “binding affinity to type II cannabinoid receptor” value in data set [3] is listed as “improved binding affinity”. Further, in the data set with rotavirus, the “antiviral activity (inhibiting rotavirus replication)” value was “exhibited antiviral activity”.
